This note sets out measurements from patent US11447487B2, “Spiroheptanyl hydantoins as rock inhibitors” (BRISTOL-MYERS SQUIBB COMPANY, priority 2017, dated 2022).

The target of the test is ROCK2 (Homo sapiens (Human), UniProt O75116). The test is described as follows: ROCK assay (Caliper LABCHIP peptide phosphorylation). The class given is biochemical. To be noted: 5 μM ATP, 1.5 μM peptide substrate. As to the method:
The effectiveness of compounds of the present invention as ROCK inhibitors can be determined in a 30 μL assay containing 20 mM HEPES, pH 7.5, 20 mM MgCl2, 0.015% Brij-35, 4 mM DTT, 5 μM ATP and 1.5 μM peptide substrate (FITC-AHA-AKRRRLSSLRA-OH) (SEQ ID No. 1). Compounds were dissolved in DMSO so that the final concentration of DMSO was <2%, and the reaction was initiated with Rho kinase variants. After incubation, the reaction was terminated by the addition of EDTA and the phosphorylated and non-phosphorylated peptides separated using a LABCHIP® 3000 Reader (Caliper Life Sciences). […] Compounds were tested in dose-response format, and the inhibition of kinase activity was calculated at each concentration of compound. The inhibition data were fit using a curve-fitting program to determine the IC50; i.e., the concentration of compound required to inhibit 50% of kinase activity. Representative Examples were tested in the ROCK assay described above and found having ROCK inhibitory activity. A range of ROCK inhibitory activity (IC50 values) of ≤50 μM (50000 nM) was observed. Table A below lists the ROCK IC50 values measured for the following examples.

ROCK2, sequence (O75116 whole entry, species assumed): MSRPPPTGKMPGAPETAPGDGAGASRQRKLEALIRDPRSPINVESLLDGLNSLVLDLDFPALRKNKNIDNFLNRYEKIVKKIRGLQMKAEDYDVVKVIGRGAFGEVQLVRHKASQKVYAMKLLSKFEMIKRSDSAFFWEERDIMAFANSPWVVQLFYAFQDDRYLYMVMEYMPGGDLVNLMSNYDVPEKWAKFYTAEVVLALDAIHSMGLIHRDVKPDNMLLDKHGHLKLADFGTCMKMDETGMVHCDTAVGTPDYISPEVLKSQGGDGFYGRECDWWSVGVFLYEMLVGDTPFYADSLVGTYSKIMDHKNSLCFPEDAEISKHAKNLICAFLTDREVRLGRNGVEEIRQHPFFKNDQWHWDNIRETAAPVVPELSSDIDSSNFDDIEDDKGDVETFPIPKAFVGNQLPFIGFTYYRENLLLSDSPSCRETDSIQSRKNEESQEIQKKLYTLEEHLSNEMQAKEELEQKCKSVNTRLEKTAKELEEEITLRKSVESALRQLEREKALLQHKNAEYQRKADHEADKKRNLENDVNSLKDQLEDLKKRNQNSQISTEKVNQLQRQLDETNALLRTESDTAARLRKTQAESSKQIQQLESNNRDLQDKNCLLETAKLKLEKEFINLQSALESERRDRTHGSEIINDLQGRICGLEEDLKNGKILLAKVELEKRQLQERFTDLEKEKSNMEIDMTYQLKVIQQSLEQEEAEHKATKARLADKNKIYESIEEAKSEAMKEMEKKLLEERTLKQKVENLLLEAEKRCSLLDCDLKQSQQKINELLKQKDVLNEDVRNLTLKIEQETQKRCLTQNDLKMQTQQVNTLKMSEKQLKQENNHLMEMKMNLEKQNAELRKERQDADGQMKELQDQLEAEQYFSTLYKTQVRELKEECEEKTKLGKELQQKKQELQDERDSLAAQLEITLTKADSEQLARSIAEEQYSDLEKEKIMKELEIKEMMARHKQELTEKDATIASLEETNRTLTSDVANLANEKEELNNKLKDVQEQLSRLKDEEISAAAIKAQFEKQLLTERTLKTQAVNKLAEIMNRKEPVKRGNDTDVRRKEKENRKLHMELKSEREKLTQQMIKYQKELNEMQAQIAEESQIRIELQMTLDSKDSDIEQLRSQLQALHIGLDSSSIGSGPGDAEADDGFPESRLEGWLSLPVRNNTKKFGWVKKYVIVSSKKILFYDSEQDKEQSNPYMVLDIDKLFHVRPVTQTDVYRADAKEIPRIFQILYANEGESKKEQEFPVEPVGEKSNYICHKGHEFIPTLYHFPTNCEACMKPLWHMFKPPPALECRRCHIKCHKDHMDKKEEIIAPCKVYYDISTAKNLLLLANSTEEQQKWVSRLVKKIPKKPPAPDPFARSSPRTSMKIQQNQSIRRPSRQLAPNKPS

As for `NC(=O)c1cccnc1O[C@H]1C[C@]2(C1)C[C@H](N1C(=O)NC(CCC(F)(F)F)C1=O)C2` (stereo partly shown) [Example 29, 2-{[(αR)-6-[2,5-dioxo-4-(3,3,3-trifluoropropyl)-imidazolidin-1-yl]spiro[3.3]-heptan-2-yl]oxy}-pyridine-3-carbox-amide], the IC50 (commonly the midpoint of a concentration-inhibition curve) turned out to be 62 nM.

As for `CC[C@@H]1NC(=O)N([C@H]2C[C@@]3(C[C@H](Oc4ncccc4C(N)=O)C3)C2)C1=O` (stereo partly drawn) [Example 35, 2-{[(αR)-6-((4S)-4-ethyl-2,5-dioxo-imidazolidin-1-yl]-spiro[3.3]heptan-2-yl]oxy}pyridine-3-carboxamide], the midpoint of inhibition, the IC50, lay at 1660 nM.

The molecule `NC(=O)c1cccnc1O[C@H]1C[C@]2(C1)C[C@H](N1C(=O)C(=O)N(CC3CCC3)C1=O)C2` (stereo partly shown) [Example 63, 2-{[(αR)-6-[3-(cyclobutyl-methyl)-2,4,5-tri-oxoimidazolidin-1-yl]spiro[3.3]-heptan-2-yl]oxy}-pyridine-3-carbox-amide] registered an IC50 of 617 nM. Then `NC(=O)c1cccnc1O[C@H]1C[C@]2(C1)C[C@H](N1C(=O)NC(CC3CCCC3)C1=O)C2` (single isomer, unassigned) [Example 52], with 160 nM; and `NC(=O)c1cccnc1O[C@H]1CC2(C1)C[C@H](N1C(=O)N[C@@H](CC3CCC(NC(=O)OCc4ccccc4)CC3)C1=O)C2` (stereo partly shown) [Example 97], with 28 nM; and `[H][C@]1(Oc2ncccc2C(N)=O)C[C@]2(C[C@@H](N3C(=O)N[C@@H](Cc4ccccc4)C3=O)C2)C1` (stereo partly shown) [Example 24], with 197 nM. The molecule `NC(=O)c1cccnc1O[C@H]1C[C@]2(C1)C[C@H](N1C(=O)NC(CCO)C1=O)C2` (stereo partly shown) [Example 18, 2-{[(αR)-6-[2,5-dioxo-4-(2-hydroxyethyl)-imidazolidin-1-yl]spiro[3.3]-heptan-2-yl)oxy}-pyridine-3-carboxamide] returned an IC50 of 1500 nM. In the case of `NC(=O)c1cccnc1O[C@H]1C[C@]2(C1)C[C@H](N1C(=O)NC(CCc3ccccc3)C1=O)C2` (single isomer, unassigned) [Example 12, 2-{[(αR)-6-(4-(2-phenylethyl)-2,5-dioxoimidazol-idin-1-yl)spiro-[3.3]heptan-2-yl]oxy}pyridine-3-carboxamide], the IC50 came to 270 nM. Then `NC(=O)c1cccnc1O[C@H]1C[C@]2(C1)C[C@H](N1C(=O)NC(CC3CCCO3)C1=O)C2` (single isomer, unassigned) [Example 55], with 212 nM; and `NC(=O)c1cccnc1O[C@H]1C[C@]2(C1)C[C@H](N1C(=O)NC(CCCS(N)(=O)=O)C1=O)C2` (stereo partly shown) [Example 66, 2-{[(αR)-6-[2,5-dioxo-4-(3-sulfam-oylpropyl)imidazol-idin-1-yl]spiro-[3.3]heptan-2-yl]-oxy}pyridine-3-carboxamide], with 1550 nM.

Molecule `C#CCC1NC(=O)N([C@H]2C[C@@]3(C[C@H](Oc4ncccc4C(N)=O)C3)C2)C1=O` (stereo partly shown) [Example 14, 2-{[(αR)-6-[2,5-dioxo-4-(prop-2-yn-1-yl)imidazol-idin-1-yl]spiro-[3.3]heptan-2-yl]oxy}pyridine-3-carboxamide] registered an IC50 of 562 nM. Then `CSCC[C@@H]1NC(=O)N([C@H]2C[C@@]3(C[C@H](Oc4ncccc4C(N)=O)C3)C2)C1=O` (stereo partly drawn) [Example 30, 2-{[(αR)-6-[(4S)-4-[2-(methyl-sulfanyl)ethyl]-2,5-dioxoimidazol-idin-1-yl]spiro-[3.3]heptan-2-yl]-oxy}pyridine-3-carboxamide], with 89 nM. Then `NC(=O)c1cccnc1O[C@H]1C[C@]2(C1)C[C@H](N1C(=O)NC(CC3CCCCC3)C1=O)C2` (single isomer, unassigned) [Example 6, 2-{[(αR)-6-(4-cyclohexylmethyl-2,5-dioxoimidazol-idin-1-yl)spiro-[3.3]heptan-2-yl]-oxy}pyridine-3-carboxamide], with 91 nM; and `NC(=O)c1cccnc1O[C@H]1C[C@]2(C1)C[C@H](N1C(=O)NC(CC3CCCC3)C1=O)C2` (single isomer, unassigned) [Example 40, 2-{[(αR)-6-[4-(cyclopentyl-methyl)-2,5-dioxo-imidazolidin-1-yl]-spiro[3.3]heptan-2-yl]oxy}pyridine-3-carboxamide], with 14 nM. With `Cc1c(CC2NC(=O)N([C@H]3C[C@@]4(C[C@H](Oc5ncccc5C(N)=O)C4)C3)C2=O)cnn1C` (stereo partly shown) [Example 72, 2-{[(αR)-6-{4-[(1,5-dimethyl-1H-pyrazol-4-yl)-methyl]-2,5-dioxo-imidazolidin-1-yl}-spiro[3.3]heptan-2-yl]oxy}pyridine-3-carboxamide] the figure was 885 nM. Turning to `CCC(CC)CC1NC(=O)N([C@H]2C[C@@]3(C[C@H](Oc4ncccc4C(N)=O)C3)C2)C1=O` (single isomer, unassigned) [Example 38, 2-{[(αR)-6-(4-(2-ethylbutyl)-2,5-dioxoimidazolidin-1-yl]spiro[3.3]-heptan-2-yl]oxy}-pyridine-3-carbox-amide], the midpoint of inhibition, the IC50, lay at 5 nM. Molecule `[H][C@]1(Oc2ncccc2C(N)=O)C[C@]2(C[C@@H](N3C(=O)N[C@@H](CC(C)C)C3=O)C2)C1` (stereo partly shown) [Example 1] had an IC50 of 8 nM. With `NC(=O)c1cccnc1O[C@H]1C[C@]2(C1)C[C@H](N1C(=O)NC(CC3CCCO3)C1=O)C2` (single isomer, unassigned) [Example 64, 2-{[(αR)-6-{2,5-dioxo-4-[(oxolan-2-yl)methyl]-imidazolidin-1-yl}-spiro[3.3]heptan-2-yl]oxy}pyridine-3-carboxamide] the figure was 802 nM. Then `NC(=O)c1cccnc1O[C@H]1C[C@]2(C1)C[C@H](N1C(=O)C3CCCCN3C1=O)C2` (stereo partly shown) [Example 17, 2-{[(αR)-6-{1,3-dioxo-hexahydro-1H-piperidino[1,2-c]imidazolidin-2-yl}spiro[3.3]heptan-2-yl]oxy}pyridine-3-carboxamide], with 1340 nM.

In turn, `CC(C)(O)COc1cccc(N2CC(=O)N([C@H]3C[C@@]4(C[C@H](Oc5ncccc5C(N)=O)C4)C3)C2=O)c1` (stereo partly shown) [Example 88, 2-(((αR)-6-(3-(3-(2-hydroxy-2-methylpropoxy)phenyl)-2,5-dioxoimidazolidin-1-yl)spiro[3.3]heptan-2-yl)oxy)nicotinamide] came in with an IC50 of 55 nM.

With `[H][C@]1(Oc2nc(OC)ccc2C(N)=O)C[C@]2(C[C@@H](N3C(=O)N[C@@H](CC(C)C(F)(F)F)C3=O)C2)C1` (stereo partly shown) [Example 102], it took 5 nM to reach half-maximal inhibition (IC50).

The molecule `NC(=O)c1cccnc1OC1CC2(C1)CC(N1C(=O)N[C@H](Cc3ccccc3)C1=O)C2` (stereo partly drawn) [Example 34, 2-({6-[(4R)-4-benzyl-2,5-dioxo-imidazolidin-1-yl]-spiro[3.3]heptan-2-yl}oxy)pyridine-3-carboxamide] yielded an IC50 of 539 nM. As for `CCC[C@@H]1NC(=O)N([C@H]2C[C@@]3(C[C@H](Oc4ncccc4C(N)=O)C3)C2)C1=O` (stereo partly drawn) [Example 31, 2-{[(αR)-6-[(4S)-2,5-dioxo-4-propyl-imidazolidin-1-yl]-spiro[3.3]heptan-2-yl]oxy}pyridine-3-carboxamide], the IC50 worked out at 123 nM. Then `CC(C)CCN1C(=O)C(=O)N([C@H]2C[C@@]3(C[C@H](Oc4ncccc4C(N)=O)C3)C2)C1=O` (stereo partly shown) [Example 65, 2-{[(αR)-6-[3-(3-methylbutyl)-2,4,5-trioxo-imidazolidin-1-yl]spiro[3.3]-heptan-2-yl]oxy}-pyridine-3-carbox-amide], with 968 nM; and `[H][C@]1(Oc2ncccc2C(N)=O)C[C@]2(C[C@@H](N3C(=O)CN(c4cccc(Cl)c4)C3=O)C2)C1` (stereo partly drawn) [Example 80, 2-(((aR)-6-(3-(3-chlorophenyl)-2,5-dioxoimidazolidin-1-yl)spiro[3.3]heptan-2-yl)oxy)nicotinamide], with 2 nM; and `CCCC(C)CC1NC(=O)N([C@H]2C[C@@]3(C[C@H](Oc4ncccc4C(N)=O)C3)C2)C1=O` (stereo partly shown) [Example 39, 2-{[(αR)-6-[4-(2-methylpentyl)-2,5-dioxoimidazolidin-1-yl]spiro[3.3]-heptan-2-yl]oxy}-pyridine-3-carbox-amide], with 14 nM. Then `NC(=O)c1cccnc1O[C@H]1C[C@]2(C1)C[C@H](N1C(=O)NC(Cc3c[nH]cn3)C1=O)C2` (stereo partly shown) [Example 22], with 2950 nM. Then `NC(=O)c1cccnc1O[C@H]1C[C@]2(C1)C[C@H](N1C(=O)NC(CCCC(F)(F)F)C1=O)C2` (single isomer, unassigned) [Example 42, 2-{[(αR)-6-[2,5-dioxo-4-(4,4,4-trifluorobutyl)-imidazolidin-1-yl]-spiro[3.3]heptan-2-yl]oxy}pyridine-3-carboxamide], with 22 nM; and `CCC(CC)C1NC(=O)N([C@H]2C[C@@]3(C[C@H](Oc4ncccc4C(N)=O)C3)C2)C1=O` (stereo partly shown) [Example 51, 2-{[(αR)-6-[2,5-dioxo-4-(pentan-3-yl)imidazolidin-1-yl]spiro[3.3]heptan-2-yl]oxy}pyridine-3-carboxamide], with 155 nM; and `NC(=O)c1cccnc1O[C@H]1C[C@]2(C1)C[C@H](N1C(=O)NC(CCC3CCCCCC3)C1=O)C2` (single isomer, unassigned) [Example 53, 2-{[(αR)-6-[4-(2-cycloheptylethyl)-2,5-dioxoimidazol-idin-1-yl]spiro-[3.3]-heptan-2-yl]-oxy}pyridine-3-carboxamide], with 171 nM. In turn, `NC(=O)c1cccnc1O[C@H]1C[C@]2(C1)C[C@H](N1C(=O)C[C@H](c3cccc(Br)c3)NC1=O)C2` (stereo partly drawn) [Example 77, 2-{[(αR)-6-[(4R)-4-(3-bromophenyl)-2,6-dioxo-1,3-diazinan-1-yl]-spiro[3.3]heptan-2-yl]oxy}pyridine-3-carboxamide] yielded an IC50 of 614 nM.
